Tests used:
skin = conditions: in vivo; cited from earlier work
[1] = system: mucous membranes of rabbits' eyes; conditions: concentrations of 0.2%; cited from earlier work
fish = conditions: in vivo; cited from earlier work
mice CBAB1/6 = conditions: cited from earlier work
Tetrahymena pyriformis = conditions: over seven generations; cited from earlier work
[2] = system: Salmonella typhimurium TA 1534, TA 1537, TA 1950, TA 98, TA 100; conditions: with or without metabolic activation; cited from earlier work
rats = conditions: cited from earlier work
mice = conditions: orally, mice (female); cited from earlier work
[3] = cited from earlier work
human genital skin 5αR = test: 5α-reductase activity: reduction of testosterone to DHT in human foreskin tissue enzyme mixture, HPLC; type: biochemical; conditions: for Activity (% of control) / DHT/testosterone (final): initial testosterone 0.34 mM; for DHT/testosterone (final): control 0.1562
Protocol: 5α-reductase activity of soluble enzyme was measured by the reduction of testosterone at 37° C. during 40 min in a 3-ml enzyme mixture of human foreskin tissue or Bos taurus (Bovine) prostatic tissues, containing NADPH, with and without the test compound in parallel with analytical Ventranal standards for Testosterone and DHT. Tissue preparation and enzyme incubations were performed in accordance with Moore et al. (see below) with modifications. All steps were carried out at 4° C. Prostate or foreskin tissue was dissected and homogenized in ice-cold homogenization phosphate buffer at pH 8.0. The homogenate was centrifuged and the resulting cell free supernatant was stored in aliquots at −80° C. Inhibition of the steroid 5α-reductase was measured by incubating the enzyme and testosterone in the presence of a plant extract or a natural compound. […] The ratio of the peak areas gave quantitative measure of the inhibition [Neeman I. et al.: Urol.
The activity of 5α-reductase (EC: 1.3.99.5) was checked in human foreskin tissue and in bovine prostatic tissues. Pure compound and plant extracts were tested for their 5α-reductase inhibition activity, in various experiments.

Compound	skin irritation (skin)	irritation of mucous membranes of eyes [1]	fish toxicity (fish)	stimulative and toxico-protective properties in fish (fish)	spontaneous mutations in micronuclear or chromosome abberation tests (mice CBAB1/6)	genetic safety / mutagenic activity (Tetrahymena pyriformis)	Ames test for mutagenic activity [2]	LD50 (rats; orally and dermally, rats (male/female))	Dermal toxicity (rats; rat, in vivo)	LD50 (mice)	toxicity and cumulative effect ([3]; acute, subacute, and chronic experiments)	adaptogenic effect (increasing adaptive ability of the population) ([3]; prolonged experiments)	toxicity ([3]; prolonged experiments)	human skin reductase activity inhibited (human genital skin 5αR; as in Table 1 (10^−7M))	Activity (% of control) (human genital skin 5αR; inhibitor 10^−7M)	DHT/testosterone (final) (human genital skin 5αR; inhibitor 10^−7M)	Activity (% of control) (human genital skin 5αR; inhibitor 10^−6M)	DHT/testosterone (final) (human genital skin 5αR; inhibitor 10^−6M)
CC(C)[C@@H](C)[C@@H](O)[C@H](O)[C@@H](C)[C@H]1CC[C@H]2[C@@H]3COC(=O)[C@H]4C[C@H](O)[C@H](O)C[C@]4(C)[C@H]3CC[C@]12C [Epibrassinolide-24]	did not irritate the skin	did not irritate	no negative effects	pronounced stimulative and toxico-protective properties	neither epibrassinolide-24 nor the liquid formulation caused spontaneous mutations	absence of mutagenic activity	negative	more than 2000 mg/kg	more than 2000 mg/kg	more than 1000 mg/kg	low toxicity and very little cumulative effect	pronounced adaptogenic effect	no toxicity	74%	25.9 % of control	0.0404		
CC(C)(C)NC(=O)[C@H]1CC[C@H]2[C@@H]3CC[C@H]4NC(=O)C=C[C@]4(C)[C@H]3CC[C@]12C [Finasteride, reference compound]																	32.7 % of control	0.0607

Source: patent US8530435B2, “Brassinosteroids in treating prostatic hyperplasia and androgenic alopecia” (Grasses of Eden Ltd., priority 2008, dated 2013)
